Assay results: patent US10189843B2, “Fused pyrazole derivative having autotaxin inhibitory activity” (The University of Tokyo, priority 2014, dated 2019)

Target: T1, Human autotaxin enzyme (Homo sapiens, UniProt Q13822)
T1 construct: purchased R&D System
Assay: Evaluation of autotaxin inhibitor, Method C (18:0 Lyso PC substrate, choline assay, Resorufin fluorescence)
Format: biochemical
Settings: Method C (Test Example 3), read-out: Inhibitory activity (enzyme inhibitory activity, IC50)
Procedure: Test Example 3 (Method C) Evaluation of Autotaxin Inhibitor
Solution B containing 100 mM Tris-HCl buffer (pH7.5), 150 mM NaCl, 5 mM MgCl2, and 0.05% Triton X-100 was prepared. Human autotaxin enzyme (purchased from R&D System) was diluted with Solution B, and 2.5 μl of which was added to a solution of test compound in DMSO. Furthermore, 2.5 μl of 200 μM 18:0 Lyso PC (purchased from Avanti Polar Lipids) in Solution B was added and allowed to react at room temperature for 2 hours. After completion of the reaction, 15 μl of the coline assay reagent (100 mM Tris-HCl buffer (pH7.5), 5 mM MgCl2, 77 μg/ml coline oxidase, 10 μg/ml peroxydase, 25 μM 10-acetyl-3,7-dihydroxyphenoxazine, and excess autotaxin inhibitor) was added and allowed to react at room temperature for 20 minutes. The fluorescent dye Resorufin, which was produced by the reaction, was detected. The fluorescence was detected using ViewLux (PerkinElmer, Inc.) with a excitation wavelength of 531 nm and a fluorescence wavelength of 598 nm.
The percent inhibition of the test compound was calculated by assuming the sample with no test compound as 0% inhibition and the sample with no enzyme as 100% inhibition, and the percent inhibitions at different concentrations of the test compound were plotted to obtain a concentration-dependent curve.

| IC50 [nM] | Compound |
| --- | --- |
| 10 to 100 | CCCCC1CN(CC(=O)OC)C(=O)c2cc(-c3ccc(Cl)cc3)nn21 (stereo not drawn) [Compound I-0249] |
| ≥ 1000 | CCCC1CN(Cc2ccc(C#N)cc2)C(=O)c2cc(-c3ccc(C(F)(F)F)cc3)nn21 (stereo not drawn) [Compound I-0182] |
| 100 to 1000 | O=C(O)c1cccc(CN2CC(COCc3ccccc3)n3nc(-c4ccc(Cl)cc4)cc3C2=O)c1 (stereo not drawn) [Compound I-0173] |
| 10 to 100 | CCCCCC1CN(CC(=O)NCC(=O)O)C(=O)c2cc(-c3ccc(Cl)cc3)nn21 (stereo not drawn) [Compound I-0059] |
| 100 to 1000 | CCCCC1CN(CC(=O)NCCC(=O)N(C)C)C(=O)c2cc(-c3ccc(Cl)cc3)nn21 (stereo not drawn) [Compound I-0225] |
| ≥ 1000 | CCCCCC1CN(Cc2ccccc2C)C(=O)c2cc(-c3ccc(Cl)cc3)nn21 (stereo not drawn) [Compound I-0127] |
| 10 to 100 | CCCCC1CN(C2CCN(CC#N)C2=O)C(=O)c2cc(-c3ccc(Cl)cc3)nn21 (stereo not drawn) [Compound I-0292] |
| 100 to 1000 | C[C@H]1CN(Cc2cccc(C#N)c2)C(=O)c2cc(-c3ccc(Cl)cc3)nn21 [Compound I-0164] |
| 100 to 1000 | CCCCC1CN(Cc2ccc(C#N)cc2)C(=O)c2cc(-c3ccc(C(F)(F)F)cc3)nn21 (stereo not drawn) [Compound I-0191] |
| 100 to 1000 | CC(=O)Nc1cc(Cl)ccc1-c1cc2n(n1)[C@@H](C)CN(C[C@@H]1CNC(=O)O1)C2=O [Compound I-0317] |
| < 10 | CCCCCC1CN(Cc2ccc(CC(=O)O)cc2)C(=O)c2cc(-c3ccc(Cl)cc3)nn21 (stereo not drawn) [Compound I-0124] |
| 100 to 1000 | CCCCC1CN(Cc2nc3ccccc3o2)C(=O)c2cc(-c3ccc(Cl)cc3)nn21 (stereo not drawn) [Compound I-0261] |
| 10 to 100 | CCCCC1CN(Cc2cccnc2)C(=O)c2cc(-c3ccc(Cl)cc3)nn21 (stereo not drawn) [Compound I-0255] |
| 10 to 100 | CCCCC1CN(Cc2ccc(C#N)cc2)C(=O)c2cc(-c3ccc(Cl)cc3CO)nn21 (stereo not drawn) [Compound I-0207] |
| 100 to 1000 | C[C@H]1CN(Cc2ccc(C#N)cc2)C(=O)c2cc(-c3c(Br)cc(Cl)cc3CO)nn21 [Compound I-0361] |
| ≥ 1000 | CCCCCC1CN(CC(=O)N(C)c2ccncc2)C(=O)c2cc(-c3ccc(Cl)cc3)nn21 (stereo not drawn) [Compound I-0085] |
| 10 to 100 | CCCCC1CN(CC(=O)N(CCC#N)CCC#N)C(=O)c2cc(-c3ccc(Cl)cc3)nn21 (stereo not drawn) [Compound I-0235] |
| 10 to 100 | CCCCCC1CN(CC(=O)N2CCC(C(=O)OCC)CC2)C(=O)c2cc(-c3ccc(Cl)cc3)nn21 (stereo not drawn) [Compound I-0004] |
| ≥ 1000 | C[C@H]1CN(Cc2ccccc2OCCCN(C)C)C(=O)c2cc(-c3ccc(Cl)cc3)nn21 [Compound I-0168] |
| 100 to 1000 | N#Cc1ccc(CN2CC(CC(F)(F)F)n3nc(-c4c(C#N)cc(Cl)cc4CO)cc3C2=O)cc1 (stereo not drawn) [Compound I-0371] |
| 10 to 100 | CCCCCC1CN(Cc2cc(C)cc(C(=O)O)c2)C(=O)c2cc(-c3ccc(Cl)cc3)nn21 (stereo not drawn) [Compound I-0122] |
| 100 to 1000 | CCCCCC1CN(CC(=O)N2CCC(c3ccccc3)C2)C(=O)c2cc(-c3ccc(Cl)cc3)nn21 (stereo not drawn) [Compound I-0110] |
| ≥ 1000 | CCCCC1CNC(=O)c2cc(-c3ccc(Cl)cc3)nn21 (stereo not drawn) [Compound I-0197] |
| 100 to 1000 | CCCCCC1CN(CC(=O)N2CCCC2CO)C(=O)c2cc(-c3ccc(Cl)cc3)nn21 (stereo not drawn) [Compound I-0040] |
| ≥ 1000 | CCCCCC1CN(CC(=O)N(C)c2ccc(C(=O)O)cc2)C(=O)c2cc(-c3ccc(Cl)cc3)nn21 (stereo not drawn) [Compound I-0118] |
| ≥ 1000 | CCCCCC1CN(Cc2ccc(OC(C)=O)cc2)C(=O)c2cc(-c3ccc(Cl)cc3)nn21 (stereo not drawn) [Compound I-0140] |
| 100 to 1000 | CCCCCC1CN(CC(=O)NCCCCCCC(=O)O)C(=O)c2cc(-c3ccc(Cl)cc3)nn21 (stereo not drawn) [Compound I-0057] |
| 100 to 1000 | CCCCC1CN(CCOc2ccccc2)C(=O)c2cc(-c3ccc(Cl)cc3)nn21 (stereo not drawn) [Compound I-0270] |
| ≥ 1000 | C[C@H]1CN(CC(=O)NCCCC(=O)O)C(=O)c2cc(-c3ccc(Cl)cc3)nn21 [Compound I-0157] |

| Compound | IC50 [nM] |
| --- | --- |
| N#Cc1ccc(CN2CC(CC(F)(F)C(F)(F)C(F)(F)F)n3nc(-c4ccc(Cl)cc4)cc3C2=O)cc1 (stereo not drawn) [Compound I-0186] | ≥ 1000 |
